Measured values taken from patent US20220252575A1, “SCREENING METHOD AND TOXICITY EVALUATION METHOD” (Public University Corporation Yokohama City University, priority 2019, published 2022).

Test system: iPS cell-derived human hepatic sinusoidal endothelial cells
Experiment: Detection of membrane attack complex in iPS cell-derived human hepatic sinusoidal endothelial cell with Oxaliplatin administration
Type: cell-based
Details: Oxaliplatin final concentration 20 μM vs solvent (ethanol), 3% human serum, 10% organoid culture supernatant

**Q.** How did the “number of cells (quantified with DAPI as an index)” value (24 hr (FIG. 4A)) turn out when `O=C1[O][Pt]2([NH][C@@H]3CCCC[C@H]3[NH]2)[O]C1=O` [Oxaliplatin] was run?
**A.** significant decrease in the number of cells

**Q.** What about the “amount of MAC formed by human serum” value (24 hr (FIG. 4B)) of the same compound?
**A.** significantly increased
